US12605360B2, “Compositions and methods using xanthan gum to stabilize at least one urolithin in an aqueous matrix” (SOCIETE DES PRODUITS NESTLE S.A., priority 2020, dated 2026)

Key:
[1] = Solubility of Urolithin A; assay type: physicochemical
Text: The present disclosure addresses the inventors' recognition that Urolithin A (UA) is insoluble in water, such that a powder containing UA as the main functional ingredient presented the challenge of keeping UA in suspension upon reconstitution of the powder with water. In this regard, UA being insoluble promotes settling of UA at the bottom of the reconstitution container almost immediately. The present disclosure includes various ways of stabilizing Urolithin A in an aqueous matrix, such that when a powder containing UA is reconstituted, the UA remains in suspension.
Comparative experimental data was generated to investigate the possibility of stabilization of UA in an aqueous matrix.

[2] = Suspension of Urolithin A upon reconstitution of powder in water; assay type: physicochemical
Method: • 1. Initially the base selected was brown rice syrup powder to which UA was added. […] UA forms a suspension in oil, so another experiment used brown rice syrup powder with canola oil powder and whey protein.
Specifically, different gums and concentrations of gums were investigated with UA and a filler that was brown rice syrup powder: • 1. Guar gum • 2. PHGG • 3. Combination of guar and xanthan • 4. Acacia gum • 5. Gellan gum • 6. FMC Gum blend • 7. Xanthan gum
Table 1 (below) sets forth the formulations of the samples testing various gums with UA. FIGS. 3A and 3B set forth the results from these samples.
Some embodiments of the compositions disclosed herein include fruit flavor and thus citric acid. […] Table 2 (below) sets forth the formulations of the samples testing various gums with UA and citric acid. FIGS. 4A and 4B sets forth the results from these samples.
For each sample, after mixing the powder with water, five minutes elapsed, then the suspension was mixed again, and then viscosity was measured. Out of the various experiments, xanthan gum provided the best solution of not only keeping UA in suspension but also the desired viscosity, easily dissolved, and no off taste/odor to the product.
A range of xanthan gum amounts were then studied (Table 3 and FIG. 5). […]

- solubility in oil ([1]; oil): sparingly soluble
- solubility in water ([1]; water): insoluble
- suspension of UA in an oil matrix [2]: forms a good suspension
Structure (SMILES): O=c1oc2cc(O)ccc2c2ccc(O)cc12 [Urolithin A]
